The values that follow come from patent US20120107385A1, “METHOD OF TREATING CONDITIONS ASSOCIATED WITH OVERACTIVE BLADDER” (priority 2010, published 2012).

A value given as a limit tells only on which side of the number the result lay.

The series can be described thus: Plasma oxybutynin and N-desethyloxybutynin following oral and intravaginal administration in dogs (14 day study).

Description: A study was conducted to determine the levels of oxybutynin and its active metabolite, N-desethyloxybutynin, present in plasma following oral and intravaginal administration of oxybutynin in dogs.
A 14 day study was conducted, where 8 young adult females were randomly assigned to 4 groups of 2 dogs each.

For the compound `CCN(CC)CC#CCOC(=O)C(O)(c1ccccc1)C1CCCCC1` (centres unmarked) [oxybutynin, 4-diethylaminobut-2-ynyl2-cyclohexyl-2-hydroxy-2-phenyl-ethanoate], the “plasma level of oxybutynin at 8 h or more after oral dosing” value (oral 10 mg/day) was not above 2.75 ng/mL. Further, for the setting “plasma”, the “time after dosing at which Cmax of oxybutynin was achieved” value was determined as 3 h.
